Square brackets hold non-standard residues; d marks the D form. Peptide text beside a SMILES is read from it. * marks the point of attachment. dPhe(4-NHCONH2) = NC(=O)Nc1ccc(C[C@@H](N)C(=O)O)cc1; Dihydroorotyl(S) = O=C1C[C@@H](C(=O)*)NC(=O)N1; dPhe(4-Cl) = N[C@H](Cc1ccc(Cl)cc1)C(=O)O; Phe(4-NH2) = Nc1ccc(C[C@H](N)C(=O)O)cc1; d2Nal = N[C@H](Cc1ccc2ccccc2c1)C(=O)O; Lys(iPr) = CC(C)NCCCC[C@H](N)C(=O)O; d3Pal = N[C@H](Cc1cccnc1)C(=O)O
Legend:
[1] = in vivo
testosterone = test: Serum testosterone concentration-time profile (LC-MS/MS), clinical trial; format: in vivo, men; conditions: for Mean time to second return of testosterone to baseline interval (after the second administration): only hypothetical (calculated, not measured)
patients with BPH [2] = test: Peak (maximal) urinary flow by flowmetry, clinical trial; format: in vivo, men; conditions: for Mean maximal urinary flow: baseline
Method: (§1) 2] Efficacy Endpoints—the measured Peak Urinary Flow, Post-void Residual Volume, and Prostate Volume.
Peak urinary flow was determined by flowmetry using the Uropower device (Wiest, World of Medicine AG, Germany). The device fulfilled the International Continence Society standards for maximum urinary flow. The measurement of urinary flow was done in sitting position.
The Qmax is the maximal urinary flow rate. It is the traditional parameter used in BPH trials and is a good indicator of degree of bladder outlet obstruction (BOO).

patients with BPH [3] = test: Prostate volume by transrectal ultrasound, clinical trial; format: in vivo, men
Excerpt: as §1
After the initial 6-week treatment period of the exploratory study had been completed, a 12-month follow-up period looking at long-term efficacy commenced. Interim data of the main efficacy variables (IPSS, IPSS Global QoL, prostate volume, urinary flow, and post-void residual volume—measured as set out below) after 6 months' follow-up are also presented herein Table 1, 2, 3 FIG. 1b), together with some IPSS data at 9 and 12 months (FIG. 1b).
The prostate volume was measured by transrectal ultrasound with the patient in lateral position. The prostatic gland was sonicated from two directions perpendicular to one another resulting in three cursor positions set by the urologist. The volume was calculated automatically. The investigations were performed by urologists by methods known in the art.

[4] = 16+16 mg group, after the first administration
[5] = 16+16 mg group, after the second administration
[6] = 32+32 mg group, after the first administration
[7] = 32+32 mg group, after the second administration
[8] = first dose of the 32+32 mg group combined with the single dose 32 mg data
[9] = Day 42, all groups, patients violating the maximal uroflow inclusion criterion excluded
[10] = Month 6 follow-up, 32 mg group, n=7
[11] = Month 6 follow-up, 64 mg group, n=4
[12] = Month 6 follow-up, 16+16 mg group, n=6
[13] = Month 6 follow-up, 32+32 mg group, n=7

CC(=O)N[C@H](Cc1ccc2ccccc2c1)C(=O)N[C@H](Cc1ccc(Cl)cc1)C(=O)N[C@H](Cc1cccnc1)C(=O)N[C@@H](CO)C(=O)N[C@@H](Cc1ccc(NC(=O)[C@@H]2CC(=O)NC(=O)N2)cc1)C(=O)N[C@H](Cc1ccc(NC(N)=O)cc1)C(=O)N[C@@H](CC(C)C)C(=O)N[C@@H](CCCCNC(C)C)C(=O)N1CCC[C@H]1C(=O)N[C@H](C)C(N)=O [Degarelix, D-Alaninamide, N-acetyl-3-(2-naphthalenyl)-D-alanyl-4-chloro-D-phenylalanyl-3-(3-pyridinyl)-D-alanyl-L-seryl-4-[[[(4S)-hexahydro-2,6-dioxo-4-pyrimidinyl]carbonyl]amino]-L-phenylalanyl-4-[(aminocarbonyl)amino]-D-phenylalanyl-L leucyl-N6-(1-methylethyl)-L-lysyl-L-prolyl] (Ac-[d2Nal][dPhe(4-Cl)][d3Pal]S[Phe(4-NH2)](Dihydroorotyl(S))[dPhe(4-NHCONH2)]L[Lys(iPr)]P[dA]-NH2)
Degarelix Cmax and AUC values [1]: higher Cmax and AUC values
Mean minimal value of testosterone (Cnadir) (testosterone; 32 mg group): 0.9 ng/mL
Mean time for first return of testosterone to baseline interval after the first administration (testosterone; 32 mg group): 9.1 (SD=5.2) days
Mean time of testosterone Cnadir (tnadir) (testosterone; 32 mg group): 1.3 days
Number of patients with testosterone below the castration level 0.5 ng/mL at one or more time-points (testosterone; 32 mg group): 3 patients
Percentage of patients with testosterone below the castration level 0.5 ng/mL at one or more time-points (testosterone; 32 mg group): 25%
Testosterone greatest change from baseline (testosterone; 32 mg group): -4.2 ng/mL
Lowest mean testosterone level (testosterone; 32 mg group, on Day 1): 0.9 ng/mL
Mean area of testosterone concentrations below 0.5 ng/mL (testosterone; 32 mg group, range 0.0-0.1): 0.0 ng·days/mL
Mean minimal value of testosterone (Cnadir) (testosterone; 64 mg group): 0.4 ng/mL
Mean time of testosterone Cnadir (tnadir) (testosterone; 64 mg group): 8.8 days
Number of patients with testosterone below the castration level 0.5 ng/mL at one or more time-points (testosterone; 64 mg group): 9 patients
Percentage of patients with testosterone below the castration level 0.5 ng/mL at one or more time-points (testosterone; 64 mg group): 69%
Testosterone greatest change from baseline (testosterone; 64 mg group): -4.7 ng/mL
Number of patients still below testosterone 0.5 ng/mL on Day 42 (testosterone; 64 mg group, of the 8 patients with testosterone <=0.5 ng/mL): Five
Lowest mean testosterone level (testosterone; 64 mg group, on Day 1): 0.4 ng/mL
Mean area of testosterone concentrations below 0.5 ng/mL (testosterone; 64 mg group, range 0.0-15.2): 4.4 ng·days/mL
Time for testosterone level to recover above 0.5 ng/mL (testosterone; 64 mg group, the other three of 8 patients): ≤ 5 days
Duration of castration (testosterone below 0.5 ng/mL) (testosterone; 16+16 mg administration, the 2 castrated patients): less than 2 days
Mean time for first return of testosterone to baseline interval after the first administration (testosterone; 16+16 mg group): 6.1 (SD=2.8) days
Number of patients with testosterone below the castration level 0.5 ng/mL at one or more time-points (testosterone; 16+16 mg group): 2 patients
Percentage of patients with testosterone below the castration level 0.5 ng/mL at one or more time-points (testosterone; 16+16 mg group): 15%
Testosterone greatest change from baseline (testosterone; 16+16 mg group): -4.0 ng/mL
Mean minimal value of testosterone (Cnadir) (testosterone; [4]): 1.4 ng/mL
Mean time of testosterone Cnadir (tnadir) (testosterone; [4]): 1.1 days
Mean minimal value of testosterone (Cnadir) (testosterone; [5]): 2.0 ng/mL
Mean time of testosterone Cnadir (tnadir) (testosterone; [5]): 4.0 days
Lowest mean testosterone level (testosterone; 16+16 mg group, on Day 1): 1.4 ng/mL
Mean time to second return of testosterone to baseline interval (after the second administration) (testosterone; 16+16 mg group): 19.5 (SD=33.9) days
Mean area of testosterone concentrations below 0.5 ng/mL (testosterone; 16+16 mg group, range 0.0-0.0): 0.0 ng·days/mL
Time for testosterone level to recover above 0.5 ng/mL (testosterone; 16+16 and 32 mg groups, 4 of the 5 patients): ≤ 2 days
Time for testosterone level to recover above 0.5 ng/mL (testosterone; 16+16 and 32 mg groups, the remaining patient of 5): ≤ 4 days
Mean time for first return of testosterone to baseline interval after the first administration (testosterone; 32+32 mg group): 9.1 (SD=2.6) days
Number of patients not suppressed below 0.5 ng/mL after the first administration but reaching this level after the second injection (testosterone; 32+32 mg group): Five
Number of patients with testosterone below the castration level 0.5 ng/mL at one or more time-points (testosterone; 32+32 mg group): 9 patients
Number of subjects that had not regained testosterone levels >0.5 ng/mL at Day 42 (testosterone; 32+32 mg group): Three
Percentage of patients with testosterone below the castration level 0.5 ng/mL at one or more time-points (testosterone; 32+32 mg group): 75%
Testosterone greatest change from baseline (testosterone; 32+32 mg group): -4.1 ng/mL
Time for testosterone level to recover above 0.5 ng/mL (testosterone; 32+32 mg group, after first administration, 3 of 4 patients): ≤ 2 days
Mean minimal value of testosterone (Cnadir) (testosterone; [6]): 0.6 ng/mL
Mean time of testosterone Cnadir (tnadir) (testosterone; [6]): 3.2 days
Mean minimal value of testosterone (Cnadir) (testosterone; [7]): 0.4 ng/mL
Mean time of testosterone Cnadir (tnadir) (testosterone; [7]): 4.3 days
Lowest mean testosterone level (testosterone; 32+32 mg group, after the second administration, on Day 17): 0.4 ng/mL
Number of patients with testosterone below 0.5 ng/mL after the first degarelix administration (testosterone; 32+32 mg group, of the 9 patients with testosterone <=0.5 ng/mL): Four
Mean time to second return of testosterone to baseline interval (after the second administration) (testosterone; 32+32 mg group): 64.2 (SD=83.5) days
Mean area of testosterone concentrations below 0.5 ng/mL (testosterone; 32+32 mg group, range 0.0-15.3): 2.8 ng·days/mL
Mean testosterone level (testosterone; Day 42, 32 mg group): 5.3 ng/mL
Mean testosterone level (testosterone; Day 42, 64 mg group): 3.0 ng/mL
Mean testosterone level (testosterone; Day 42, 16+16 mg group): 4.5 ng/mL
Mean testosterone level (testosterone; Day 42, 32+32 mg group): 2.7 ng/mL
Number of patients with testosterone below the castration level 0.5 ng/mL at one or more time-points (testosterone; all groups, of the 50 patients, up to Day 42): 22 patients
Mean testosterone level (testosterone; baseline, 32 mg group): 5.2 ng/mL
Mean testosterone level (testosterone; baseline, 64 mg group): 5.2 ng/mL
Mean testosterone level (testosterone; baseline, 16+16 mg group): 5.5 ng/mL
Mean testosterone level (testosterone; baseline, 32+32 mg group): 4.5 ng/mL
Duration of castration (testosterone below 0.5 ng/mL) (testosterone; first dose of the 32+32 mg group combined with single dose 32 mg, the 8 castrated patients, generally): 2 to 4 days
Number of patients castrated (testosterone below 0.5 ng/mL) (testosterone; [8]): 8 patients
Percentage of patients castrated (testosterone below 0.5 ng/mL) (testosterone; [8]): 33%
Testosterone area below and time to return to the baseline interval, total 64 mg vs total 32 mg (testosterone; groups given a total of 64 mg degarelix compared to the total dose 32 mg): more than 2 fold
Number of patients with maximal urinary flow decreased vs baseline (patients with BPH [2]; Day 42, all groups): 25 patients
Number of patients with maximal urinary flow increased vs baseline (patients with BPH [2]; Day 42, all groups): 24 patients
Number of patients with maximal urinary flow unchanged vs baseline (patients with BPH [2]; Day 42, all groups): 1 patient
Number of patients with decreased uroflow (patients with BPH [2]; [9]): 17
Number of patients with increased uroflow (patients with BPH [2]; [9]): 20
Mean maximal urinary flow (patients with BPH [2]; 32 mg group): 11.7 mL/s
Mean maximal urinary flow (patients with BPH [2]; 64 mg group): 9.1 mL/s
Mean maximal urinary flow (patients with BPH [2]; 16+16 mg group): 10.0 mL/s
Mean maximal urinary flow (patients with BPH [2]; 32+32 mg group): 9.7 mL/s
Mean (SD) Prostate Volume (patients with BPH [3]; Baseline of 6-month follow-up patients, 32 mg group, n=7): 45.9 (n = 7) mL
Mean (SD) Prostate Volume (patients with BPH [3]; Baseline of 6-month follow-up patients, 64 mg group, n=4): 38.7 (n = 4) mL
Mean (SD) Prostate Volume (patients with BPH [3]; Baseline of 6-month follow-up patients, 16+16 mg group, n=6): 40.8 (n = 6) mL
Mean (SD) Prostate Volume (patients with BPH [3]; Baseline of 6-month follow-up patients, 32+32 mg group, n=7): 37.1 (n = 7) mL
Mean (SD) Prostate Volume (patients with BPH [3]; Baseline, 32 mg group, N=12): 48.7 (21.0) mL
Mean (SD) Prostate Volume (patients with BPH [3]; Baseline, 64 mg group, N=13): 38.9 (9.0) mL
Mean (SD) Prostate Volume (patients with BPH [3]; Baseline, 16+16 mg group, N=13): 42.0 (12.1) mL
Mean (SD) Prostate Volume (patients with BPH [3]; Baseline, 32+32 mg group, N=12): 38.1 (7.1) mL
Prostate Volume Change from Baseline (patients with BPH [3]; Day 42, 32 mg group): −13.9 (14.7) mL
Prostate Volume Percentage Change from Baseline (patients with BPH [3]; Day 42, 32 mg group): −25.1 (18.0) %
Prostate Volume Change from Baseline (patients with BPH [3]; Day 42, 64 mg group): −8.2 (10.2) mL
Prostate Volume Percentage Change from Baseline (patients with BPH [3]; Day 42, 64 mg group): −19.7 (23.2) %
Prostate Volume Change from Baseline (patients with BPH [3]; Day 42, 16+16 mg group): −7.5 (7.7) mL
Prostate Volume Percentage Change from Baseline (patients with BPH [3]; Day 42, 16+16 mg group): −17.0 (16.7) %
Prostate Volume Change from Baseline (patients with BPH [3]; Day 42, 32+32 mg group): −9.4 (9.3) mL
Prostate Volume Percentage Change from Baseline (patients with BPH [3]; Day 42, 32+32 mg group): −23.5 (20.9) %
Prostate Volume Change from Baseline (patients with BPH [3]; [10]): −11.6 (5.1) mL
Prostate Volume Percentage Change from Baseline (patients with BPH [3]; [10]): −25.6 (8.0) %
Prostate Volume Change from Baseline (patients with BPH [3]; [11]): −9.7 (10.4) mL
Prostate Volume Percentage Change from Baseline (patients with BPH [3]; [11]): −21.5 (20.6) %
Prostate Volume Change from Baseline (patients with BPH [3]; [12]): −11.2 (4.4) mL
Prostate Volume Percentage Change from Baseline (patients with BPH [3]; [12]): −27.8 (8.7) %
Prostate Volume Change from Baseline (patients with BPH [3]; [13]): −10.6 (8.8) mL
Prostate Volume Percentage Change from Baseline (patients with BPH [3]; [13]): −27.1 (17.3) %
